Like-named read-outs stand apart in the source and are kept apart here.
How the values were obtained:
4T1 cells = test: MTT cell viability assay in 4T1 cells; format: cell-based, Mouse; details: for cancer cell viability, dose dependence: 4T1 cells, 0.5, 1, 1.5 and 2 mM, compared to the control; for cytotoxicity at 2000 µM: Mus musculus, read-out: reduction of cell viability compared to the control
Method: Mouse breast carcinoma model (4T1 cells) were cultured in the presence of taraxasterol, vitexin, sinigrin or a mixture of all these molecules, at the indicated concentrations (0.5, 1, 1.5, and 2 mM), for 48 hours. Cell viability was determined by MTT colorimetric assay, in which a yellow tetrazole is reduced to purple formazan in living cells. The resultant color was measured at 450 nm. Reduced viability of cancer cells was a marker for the efficacy of the treatment.

human lung cancer cells = details: cited from earlier work
human colon cancer cells = details: cited from earlier work
tumors = details: mouse, in vivo; cited from earlier work

SMILES	cancer cell viability, dose dependence (4T1 cells; 48 hours)	cytotoxicity at 2000 µM (4T1 cells; 4T1, 48 h)	apoptosis in human lung cancer cells (human lung cancer cells)	apoptosis in human colon cancer cells (human colon cancer cells)	tumor growth in human colon cancer cells (human colon cancer cells)	cytotoxicity at 2000 µM (4T1 cells; 4T1 cells, 2 mM, 48 hours, MTT)	growth of tumors in mice (tumors)
C=CC/C(=N/OS(=O)(=O)O)S[C@@H]1O[C@H](CO)[C@@H](O)[C@H](O)[C@H]1O [sinigrin, (Z)-N-[1-(β-D-glucopyranosylsulfanyl)but-3-en-1-ylidene] hydroxylamine-O-sulfonic acid]	reduced cancer cell viability dose dependently	23%	induces apoptosis	–	–	–	–
C=C1CC[C@]2(C)CC[C@]3(C)[C@H](CC[C@@H]4[C@@]5(C)CC[C@H](O)C(C)(C)[C@@H]5CC[C@]43C)[C@H]2[C@@H]1C [taraxasterol, (3S,4aR,6aR,6bR,8aR,12S,12aR,12bR,14aR,14bR)-4,4,6a,6b,8a,12, 14b-heptamethyl-11-methylidenedocosahydropicen-3-ol]	reduced cancer cell viability dose dependently	–	–	induces apoptosis	suppresses tumor growth	29%	–
O=c1cc(-c2ccc(O)cc2)oc2c([C@@H]3O[C@H](CO)[C@@H](O)[C@H](O)[C@H]3O)c(O)cc(O)c12 [vitexin, 8-(β-D-glucopyranosyl)-4′,5,7-trihydroxyflavone]	reduced cancer cell viability dose dependently	–	induces apoptosis	–	–	20%	suppresses the growth of tumors

— patent US20260248822A1, “METHOD AND COMPOSITION FOR THE TREATMENT OF CANCER” (IMPACT HEALTH GLOBAL LTD., priority 2023, published 2026)
